Literature values in patent US20210045998A1 (priority 2018, published 2021).

Settings: in vivo

In the case of CC1=CC[C@H]2C[C@@H]1C2(C)C [α-Pinene, (1S,5S)-2,6,6-Trimethylbicyclo[3.1.1]hept-2-ene], the human pulmonary uptake is listed as 60%.
